Measured values published in ChEMBL document CHEMBL1201862, “PubChem BioAssay data set” (2004).
The source made the active and inactive calls.

Assays:
[1] = target: T1, Heat shock factor protein 1 (Mus musculus, UniProt P38532); assay: HSF1 potentiators in luciferase reporter cells, confirmation, cell-based, NIH3T3, luminescence, dose retest (AID 435004); type: functional;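 further: stress induced by proteasome inhibitor MG132 added 30 min after compound; luciferase reporter driven by HSF1 response element in NIH3T3 cells; actives raise luminescence as potentiators of the MG132 stress response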
T1 sequence (P38532 whole entry): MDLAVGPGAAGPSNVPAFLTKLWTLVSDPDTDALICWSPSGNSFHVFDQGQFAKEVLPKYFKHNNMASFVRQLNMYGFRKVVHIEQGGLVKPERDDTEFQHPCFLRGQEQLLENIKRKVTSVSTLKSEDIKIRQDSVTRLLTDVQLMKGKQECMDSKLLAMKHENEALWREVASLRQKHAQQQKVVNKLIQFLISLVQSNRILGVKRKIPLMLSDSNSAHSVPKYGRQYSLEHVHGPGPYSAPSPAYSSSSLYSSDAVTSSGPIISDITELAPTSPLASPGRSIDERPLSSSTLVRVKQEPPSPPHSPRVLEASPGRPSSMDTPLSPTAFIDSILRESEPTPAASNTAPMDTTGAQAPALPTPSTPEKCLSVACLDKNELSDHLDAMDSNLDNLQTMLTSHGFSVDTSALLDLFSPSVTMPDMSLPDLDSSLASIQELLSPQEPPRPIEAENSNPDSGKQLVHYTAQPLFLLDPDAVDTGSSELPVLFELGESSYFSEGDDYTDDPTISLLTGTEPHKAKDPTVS

Streptokinase A = target: T2, Streptokinase A (Streptococcus pyogenes serotype M1, UniProt P10520); assay: S. pyogenes streptokinase expression inhibitors, potency, dose response, plasminogen activation absorbance, OD405 (AID 1914); type: functional, Streptococcus pyogenes M1 GAS;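 further: secreted streptokinase activity via plasminogen activation per viability signal from cell pellet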
T2 sequence (P10520 whole entry): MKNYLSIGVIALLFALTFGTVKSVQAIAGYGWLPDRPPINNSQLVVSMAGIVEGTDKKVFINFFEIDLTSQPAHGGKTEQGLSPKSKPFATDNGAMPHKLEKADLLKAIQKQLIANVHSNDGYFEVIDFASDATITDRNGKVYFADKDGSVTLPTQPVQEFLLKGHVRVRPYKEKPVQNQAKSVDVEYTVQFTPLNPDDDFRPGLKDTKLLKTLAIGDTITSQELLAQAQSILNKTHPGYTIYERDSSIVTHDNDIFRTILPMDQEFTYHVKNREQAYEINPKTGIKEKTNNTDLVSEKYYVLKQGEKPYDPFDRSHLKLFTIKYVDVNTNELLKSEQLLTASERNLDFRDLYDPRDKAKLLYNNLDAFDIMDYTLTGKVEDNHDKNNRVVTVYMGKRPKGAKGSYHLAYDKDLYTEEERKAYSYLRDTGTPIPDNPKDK

[2] = system: Streptococcus sp. 'group A'; assay: growth inhibition of control SK(-) GAS strain, dose response, counter-screen for streptokinase expression inhibitor project, luminescence, kanamycin, BacTiterGlo, confirmation (AID 1900); type: functional, organism-based
Streptococcus = assay: Group A Streptococcus viability loss, dose response, counter-screen for streptokinase expression inhibitor project, luminescence, BacTiterGlo (AID 1915); type: functional, organism-based;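 further: potency for reduction of bacterial viability or growth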
[3] = HEp-2 cell cytotoxicity, dose response, cytotoxicity control for RSV inhibitor project, HTS (AID 2410); type: functional; details: human respiratory syncytial virus
[4] = cytotoxicity toward NIH3T3 fibroblasts, dose response, counter-screen, cell-based, ATP luminescence, mouse fibroblasts (AID 2010); type: functional;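 further: cells exposed to compound for about 90 hours before reading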
[5] = inhibitors of intracellular T. cruzi replication, confirmation, NIH3T3 host cells, beta-gal luminescence (AID 2044); type: functional, cell-based;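 further: intracellular parasites grown in NIH/3T3 mouse fibroblasts as host cells; luminescent beta-galactosidase reporter signal from transgenic T. cruzi replicating inside host cells; inhibitors lower the luminescence signal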
Cytochrome P450 2C19 = Cytochrome P450 2C19 (Homo sapiens, UniProt P33261); assay: Cytochrome panel assay with activity outcomes. Panel member name: p450-cyp2c19 Compounds with AC50 equal or less than 10 uM are considered active; type: functional; details: read-out: AC50
Chain of Cytochrome P450 2C19 (P33261 whole entry): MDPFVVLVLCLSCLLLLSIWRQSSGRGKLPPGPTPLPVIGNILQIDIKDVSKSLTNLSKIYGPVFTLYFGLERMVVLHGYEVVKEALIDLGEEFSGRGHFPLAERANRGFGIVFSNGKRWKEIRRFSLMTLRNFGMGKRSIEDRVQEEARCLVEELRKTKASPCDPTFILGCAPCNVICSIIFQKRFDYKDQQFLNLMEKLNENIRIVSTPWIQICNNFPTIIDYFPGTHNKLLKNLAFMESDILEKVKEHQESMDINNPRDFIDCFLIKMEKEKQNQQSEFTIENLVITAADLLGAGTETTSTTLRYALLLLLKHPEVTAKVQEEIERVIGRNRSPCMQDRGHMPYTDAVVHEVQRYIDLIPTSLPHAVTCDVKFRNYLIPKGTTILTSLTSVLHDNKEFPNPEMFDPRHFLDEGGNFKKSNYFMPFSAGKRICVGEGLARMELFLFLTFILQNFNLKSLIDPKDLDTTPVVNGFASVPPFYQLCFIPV

For COc1ccc(C2C(C(C)=O)=C(O)C(=O)N2c2ccc(C)cc2)cc1 (configuration not stated), the EC50 [1] was > 260 µM (inactive).
With O=C(NC12CC3CC(CC(C3)C1)C2)c1ccc(-c2ccc(Br)cc2)o1 the EC50 (Streptokinase A) was 35.3 µM (active), the EC50 [2] was 4.59 µM (active) and the EC50 (Streptococcus) was 9.47 µM (active).
With C/C(=N\NC(=O)c1ccccc1N)c1ccc(NC(=O)Cc2ccccc2)cc1 the EC50 (Streptokinase A) was > 150 µM (not active), the EC50 [2] was 3.07 µM (active) and the EC50 (Streptococcus) was 16.3 µM (active).
In the case of C=CCn1sc(N)c(C(=O)OCC)c1=S, the CC50 [3] is reported as 24 µM (active).
For O=C(O)CSc1nc2ccccc2nc1Cc1ccccc1F, the EC50 [1] was > 260 µM (inactive).
With Cc1ccccc1N=C(S)N(Cc1cccnc1)Cc1ccccc1Cl the EC50 [4] was > 60 µM (not active) and the EC50 [5] was 0.8 µM (active).
For O=C(Nc1ncc(Cc2cccc(C(F)(F)F)c2)s1)c1ccc(-c2cccc([N+](=O)[O-])c2)o1, the EC50 [4] was 9.52 µM (active) and the EC50 [5] was 1.73 µM (active).
With OCCC1CN(Cc2cc3c(cc2Cl)OCO3)CCN1Cc1ccccc1 (configuration not stated) the EC50 [4] was > 60 µM (not active) and the EC50 [5] was 1.21 µM (active).
With CC(=O)c1cccc(S(=O)(=O)N2CCCC(c3nc(O)c4nnn(Cc5cccc(Cl)c5)c4n3)C2)c1 (configuration not stated) the CC50 [3] was > 50 µM (active).
In the case of N#CCCN1CCN(C(=S)c2ccc(-c3ccc(Cl)c(Cl)c3)o2)CC1, the EC50 [1] is reported as 3.72 µM (active).
For COc1ccccc1NS(=O)(=O)c1cc(NC(S)=NCC2CCCO2)ccc1C (configuration not stated), the EC50 [2] was > 150 µM (not active) and the EC50 (Streptococcus) was > 150 µM (not active).
In the case of C#C[C@@]1(O)CC[C@@H]2[C@@H]3CCC4=CC(=O)CC[C@@H]4[C@H]3CC[C@]21CC, the AC50 (Cytochrome P450 2C19) is reported as 0.0794 µM (inconclusive).
With Nc1c(Cl)cc(-c2csc(N3CCCC3c3nc4cc(Cl)c(Cl)cc4n3CCCO)n2)cc1Cl (configuration not stated) the CC50 [3] was 35.1 µM (active).
In the case of Cc1ccc2nc(-c3ccncc3)c(NC3CCCCC3)n2c1, the EC50 [4] is reported as > 60 µM (not active) and the EC50 [5] is reported as 1.86 µM (active).
With CC1(C)CC(=O)C(/C=N/c2cccnc2)=C(O)C1 the EC50 [1] was 16.6 µM (active).
For O=C(Nc1nc2c(s1)CN(Cc1ccccc1)CC2)c1c(F)cccc1F, the CC50 [3] was 16.1 µM (active).
For COc1ccccc1OCc1nnc(SCCN2CCOCC2)o1, the EC50 [1] was > 260 µM (inactive).
For C=CCn1c(-c2ccc(Cl)cc2)ccc(C#N)c1=O, the CC50 [3] was > 50 µM (active).
With Brc1c[nH]c2nc(SC/C=C/c3ccccc3)nc-2c1 the EC50 [1] was 1.37 µM (active).
For Cc1ccccc1OCCCC(=O)Nc1ccccc1C(F)(F)F, the EC50 [1] was > 260 µM (inactive).
In the case of COc1cc(C(=O)NCC(c2cccnc2)N2CCN(c3ccc(F)cc3)CC2)cc(OC)c1OC (configuration not stated), the EC50 [4] is reported as > 30 µM (not active) and the EC50 [5] is reported as 0.959 µM (active).
For Cc1ccccc1Oc1nc2c(C)cccn2c(=O)c1/C=C(\C#N)C(=O)Nc1c(C)n(C)n(-c2ccccc2)c1=O, the EC50 [1] was 12.1 µM (active).
For Cc1cc(OC(=O)c2ccccc2Br)cc(=O)n1C, the AC50 (Cytochrome P450 2C19) was 39.8 µM (inconclusive).
With COc1ccc(-c2ccc([C@H]3[C@@H]4C=CCC[C@@]4(C)C(=O)N3Cc3ccccc3)c(F)c2)cc1OC the EC50 [4] was 37.1 µM (active) and the EC50 [5] was 2.55 µM (active).
In the case of C=CCOc1ccc(-c2nc3c(c(=O)[nH]c(=O)n3Cc3ccccc3)n2CCCOC)cc1, the EC50 [1] is reported as > 260 µM (inactive).
For CC(C)(C)c1[nH]ncc1[N+](=O)[O-], the EC50 [1] was > 260 µM (inactive).
With CCCC(=O)Nc1cc(-c2nn(C)c(=O)c3ccccc23)ccc1OC the EC50 [1] was > 260 µM (inactive).
In the case of Cc1sc(NC(=O)c2c(F)cccc2F)nc1-c1ccccc1, the CC50 [3] is reported as 43.2 µM (active).
In the case of CC(Oc1ccc(Cl)cc1Cl)C(=O)NCCCCc1ccccc1 (configuration not stated), the EC50 [1] is reported as > 260 µM (inactive).
In the case of Cc1cc(C)cc(Nc2ccc([N+](=O)[O-])nc2[N+](=O)[O-])c1, the EC50 [4] is reported as > 60 µM (not active) and the EC50 [5] is reported as 1.63 µM (active).
In the case of CCCC(CCC)C(=O)OC[N+](C)(C)CCOC(=O)C(O)(c1ccccc1)C1CCCC1 (configuration not stated), the EC50 [4] is reported as > 60 µM (not active) and the EC50 [5] is reported as 1.31 µM (active).
For Cc1cc(-c2ccccc2)c2c(O)[nH]nc2n1, the CC50 [3] was 48.2 µM (active).
In the case of COc1ccccc1NS(=O)(=O)c1cc(NC(=S)NCC2CCCO2)ccc1C (configuration not stated), the EC50 (Streptokinase A) is reported as > 150 µM (not active).
With C/C(=N\Nc1nc(C)cc(-c2ccccc2)n1)c1ccc(C)o1 the EC50 [1] was > 260 µM (inactive).
With COc1cc(C(=O)NCC2CCCO2)ccc1OCc1ccc(Cl)cc1Cl (configuration not stated) the EC50 [1] was 104 µM (active).
For Cc1nc(N2CCN(Cc3ccc4c(c3)OCO4)CC2)c2cc(-c3ccccc3)sc2n1, the EC50 (Streptokinase A) was > 150 µM (not active), the EC50 [2] was 19.3 µM (active) and the EC50 (Streptococcus) was 112 µM (active).
With CC(Oc1cccc(Cl)c1)C(=O)Nc1ccccc1N1CCCCC1 (configuration not stated) the EC50 (Streptokinase A) was 13.5 µM (active), the EC50 [2] was 9.74 µM (active) and the EC50 (Streptococcus) was 26.4 µM (active).
With Cc1ccc(C)c(S(=O)(=O)N2CCN(CC(=O)Nc3cc(C)on3)CC2)c1 the EC50 [1] was > 260 µM (inactive).
With Cc1ccc(C)c(N2CCN(C(=O)CCC(=O)N3CCOc4ccc(Cl)cc43)CC2)c1 the EC50 [4] was > 60 µM (not active) and the EC50 [5] was 2.47 µM (active).
For CCN1CCN(C(CNS(=O)(=O)c2ccc(C)cc2)c2cccnc2)CC1 (configuration not stated), the EC50 (Streptokinase A) was > 150 µM (not active), the EC50 [2] was > 150 µM (not active) and the EC50 (Streptococcus) was > 150 µM (not active).
With Nc1nc(-c2cccnc2)nc2sc3c(c12)CCCC3 the CC50 [3] was > 50 µM (active).
For Cc1cc(OCCCn2ccnc2)ccc1C(C)C, the EC50 [4] was > 60 µM (not active) and the EC50 [5] was 1.99 µM (active).
In the case of COc1ccc(-c2cc(-c3ccc(Cl)cc3)[nH]n2)c(O)c1, the EC50 (Streptokinase A) is reported as > 150 µM (not active), the EC50 [2] is reported as 7.27 µM (active) and the EC50 (Streptococcus) is reported as 9.14 µM (active).
For COc1ccc(C2CC(=O)c3c(C)nc(N4CCN(Cc5ccccc5)CC4)nc3C2)cc1OC (configuration not stated), the EC50 [4] was > 60 µM (not active) and the EC50 [5] was 1.85 µM (active).
With CCN(C(=O)c1cc2c(s1)-c1ccccc1OC2)c1cc(OC)ccc1OC the CC50 [3] was 26.8 µM (active).
With COc1cc(C(=O)NCC(c2cccs2)N2CCc3ccccc32)cc(OC)c1OC (configuration not stated) the CC50 [3] was 18 µM (active).
With COc1ccc(-c2ncc(CN3CCN(CCC(C)C)C(CCO)C3)cn2)cc1 (configuration not stated) the EC50 [4] was 12.3 µM (active) and the EC50 [5] was 0.933 µM (active).
For CCN(CC)CCCNC(=O)c1ccc(OCC(=O)Nc2ccccc2C(F)(F)F)c(OC)c1, the EC50 [4] was > 30 µM (not active) and the EC50 [5] was 1.95 µM (active).
For Cc1cccc(C(=O)N2CCC(=O)N(C(COCc3ccc(Cl)cc3)Cc3ccccc3)CC2)c1 (configuration not stated), the CC50 [3] was 19.6 µM (active).
For CC(=O)c1ccc(N=C(S)N2C(C)CCCC2C)cc1 (configuration not stated), the EC50 [1] was > 260 µM (inactive).
In the case of COc1cccc(-c2c(C#N)c(N)nc3c2c(C)nn3-c2ccccc2)c1O, the EC50 [1] is reported as 57.9 µM (active).
With CCN(CCCC(=O)c1ccc(F)cc1)CCc1ccccc1 the EC50 [4] was > 60 µM (not active) and the EC50 [5] was 0.111 µM (active).
With CCNc1nc(NC(C)C)nc(N(C#N)C(C)C(=O)N(CC)CC)n1 (configuration not stated) the CC50 [3] was 28.8 µM (active).
In the case of COc1ccc(-n2c(=S)[nH]c3cc(C(=O)Nc4ccc(C)c(F)c4)ccc3c2=O)c(OC)c1, the EC50 (Streptokinase A) is reported as > 150 µM (not active), the EC50 [2] is reported as 9.84 µM (active) and the EC50 (Streptococcus) is reported as 14.8 µM (active).
With COc1ccc(Cl)cc1C(=O)NNC(=S)NC(=O)c1cc(-c2ccc(Cl)cc2)nc2ccccc12 the EC50 [2] was 0.202 µM (active) and the EC50 (Streptococcus) was 6 µM (active).
With Cc1ccc2nc(-c3ccncc3)c(NC3CCCC3)n2c1 the EC50 [4] was > 60 µM (not active) and the EC50 [5] was 2.29 µM (active).
